Experimental data taken from patent publication US20190374509A1, “Methods of Using Metamizole for Treatment of Pyrexia in Equines” (Kindred Biosciences, Inc., priority 2018, published 2019).
Several values for one entry are separate records, joined by “and”; a condition that tells them apart may be missing. Equal values may be shown once.

Test system: horses
Experiment: Margin of safety study, IV three times daily for 9 days: coagulation panel (prothrombin time, APTT, fibrinogen)
Format: in vivo
Details: for Prothrombin Time LS Means: averaged over time and sex
Method: A study was conducted to evaluate the margin of safety of metamizole when administered intravenously to horses for 9 days at doses of 0 mg/kg (0×), 30 mg/kg (1×), 60 mg/kg (2×), and 90 mg/kg (3×) of body weight three times daily (TID), every 8 hours±30 min.
This was a prospective, blinded, randomized, placebo-controlled, parallel-group laboratory study in research horses. Thirty-two horses were enrolled in the study (Table 1).
Treatment phase involved administration of the investigational drug or placebo. The investigational drug was a sterile injectable formulation of dipyrone (Zimeta™, Corden Pharma, Caponago, Italy) (500 mg/mL) in 100 mL glass bottles. The placebo was sterile injectable saline (Nova-Tech Inc, Grand Island, NE) (0.9% sodium chloride) in 500 mL plastic bottles labeled for veterinary use. Dipyrone treatment groups were 30 mg/kg (1×), 60 mg/kg (2×), and 90 mg/kg (3×). Placebo treatment group was saline administered at a volume to match the 3× dipyrone group (0×). The dose was calculated based on body weight and administered three times daily for nine consecutive days. Due to the large volume of injection at the higher dose groups, treatment was administered via indwelling intravenous (IV) catheters. Intravenous catheters were placed using standard techniques. Horses were sedated with xylazine (AnaSed® LA, VetOne, MWI, Boise, Id.) and the skin was desensitized with subcutaneous injection of lidocaine (VetOne, MWI, Boise, Id.). Intravenous catheters were replaced at the discretion of the study director and were maintained with heparinized saline flush prior to and following dose administration.
Randomization occurred on Study Day −1. […] .
For continuous endpoints with repeated post-treatment measurements (serum chemistry, coagulation, hematology, urinalysis, body weight, body temperature, heart rate and respiratory rate), repeated measurement analysis of covariance (SAS MIXED procedure RMANCOVA) was used to evaluate a model including treatment, time, sex, treatment by sex interaction, treatment by time interaction, and treatment by time by sex three-way interaction as fixed effects. In addition, baseline values were included as a covariate and remained in the model regardless of its significance. Baseline values were defined as the values prior to and nearest to the first dosing. The covariance structures for repeated measures analysis of covariance (RMANCOVA) were selected from compound symmetry (CS) and compound symmetry heterogeneous variances (CSH), since only two post baseline measurements were collected in this study. The Kenward-Roger approximation was used to calculate denominator degrees of freedom for statistical tests. The minimum Akaike Information Criterion was used to select the covariance structure.
In Table 6 below the percent of samples in each treatment group that were above the upper reference range limit of 12 seconds is listed for Days 4 and 8.

[1] = 1X, 30 mg/kg IV every 8 hours, Day 4
[2] = 1X, 30 mg/kg IV every 8 hours, Day 8
[3] = 2X, 60 mg/kg IV every 8 hours, Day 4
[4] = 2X, 60 mg/kg IV every 8 hours, Day 8
[5] = 3X, 90 mg/kg IV every 8 hours, Day 4
[6] = 3X, 90 mg/kg IV every 8 hours, Day 8
[7] = 3X, 90 mg/kg IV every 8 hours, Day 8, only 7 samples
[8] = 30, 60, 90 mg/kg IV every 8 hours for 9 days vs placebo

Cc1c(N(C)CS(=O)(=O)O)c(=O)n(-c2ccccc2)n1C [dipyrone, [(2,3-dihydro-1,5-dimethyl-3-oxo-2-phenyl-1H-pyrazol-4-yl)methylamino] methanesulfonic acid]
Percent of samples with PT >12 sec [1]: 100%
Percent of samples with PT >14 sec [1]: 25%
Prothrombin Time Day 4 Range [1]: 12.6 to 14.6 s
Range of PT values >14 sec [1]: 14.1 to 14.6 s
Percent of samples with PT >12 sec [2]: 100%
Percent of samples with PT >14 sec [2]: 13%
Prothrombin Time Day 8 Range [2]: 12.3 to 15.2 s
Range of PT values >14 sec [2]: (15.2) sec
Prothrombin Time LS Means (1X, 30 mg/kg IV every 8 hours): 13.374 s and 13.374 ± 0.4062 s
Percent of samples with PT >12 sec [3]: 100%
Percent of samples with PT >14 sec [3]: 13%
Prothrombin Time Day 4 Range [3]: 12.7 to 15.8 s
Range of PT values >14 sec [3]: 15.8 s
Percent of samples with PT >12 sec [4]: 100%
Percent of samples with PT >14 sec [4]: 50%
Prolongation of PT observed, number of horses [4]: 1
Prothrombin Time Day 8 Range [4]: 12.8 to 21.6 s
Range of PT values >14 sec [4]: (14.7-21.6) sec
Prothrombin Time LS Means (2X, 60 mg/kg IV every 8 hours): 14.524 s and 14.524 ± 0.4064 s
Percent of samples with PT >12 sec [5]: 100%
Percent of samples with PT >14 sec [5]: 75%
Prothrombin Time Day 4 Range [5]: 13.4 to 15.9 s
Range of PT values >14 sec [5]: 14.6 to 15.9 s
Prolongation of PT observed, number of horses [6]: 1
Prothrombin Time Day 8 Range [6]: 12.7 to 21.9 s
Range of PT values >14 sec [6]: (14.3-21.9) sec
Percent of samples with PT >12 sec [7]: 100%^4
Percent of samples with PT >14 sec [7]: 71%^4
Prothrombin Time LS Means (3X, 90 mg/kg IV every 8 hours): 14.946 s and 14.946 ± 0.4396 s
Activated partial thromboplastin time (APTT) or fibrinogen [8]: no statistically significant differences
Effect on prothrombin time (PT) [8]: statistically significant main treatment effect of prolongation of prothrombin time (PT)
